Experimental data reported in ChEMBL document CHEMBL1124229, “Spiro hydantoin aldose reductase inhibitors” (J Med Chem, 1988).

Legend:
[1] = biological target: Aldo-keto reductase family 1 member B1 (Homo sapiens, UniProt P15121); assay: In vitro inhibitory activity towards partially purified human placenta aldose reductase
Rattus norvegicus [2] = organism: Rattus norvegicus; assay: Ability to cause 50% reduction in sorbitol levels of sciatic nerve of streptozotocinized rats was determined; assay type: functional; details: Rattus norvegicus, Sciatic nerve; read-out: ED50
[3] = biological target: T1, Aldo-keto reductase family 1 member B1 (Bos taurus, UniProt P16116); assay: In vitro inhibition of partially purified calf lens aldose reductase
Rattus norvegicus [4] = organism: Rattus norvegicus; assay: Ability to cause 50% reduction in sorbitol levels of sciatic nerve of streptozotocinized rats was determined; value ranges from 0.25-0.75; assay type: functional
[5] = biological target: T1, Aldo-keto reductase family 1 member B1; assay: In vitro inhibitory activity towards partially purified calf lens aldose reductase; value ranges from 10E-6 - 10E-7
Rattus norvegicus [6] = organism: Rattus norvegicus; assay: Ability to cause 50% reduction in sorbitol levels of sciatic nerve of streptozotocinized rats was determined; value ranges from 2.5-5; assay type: functional
[7] = pKa in DMF/H2O was measured; assay type: physicochemical
[8] = biological target: T1, Aldo-keto reductase family 1 member B1; assay: In vitro inhibition of partially purified calf lens aldose reductase; value ranges from 10E-5 to 10E-6
Rattus norvegicus [9] = organism: Rattus norvegicus; assay: 50% reduction in sorbitol accumulation in isolated sciatic nerves incubated in the presence of high glucose concentration; value ranges from 10E-2 - 10E-3; assay type: functional; details: Sciatic nerve
Rattus norvegicus [10] = organism: Rattus norvegicus; assay: Dose causing 50% reduction in sorbitol accumulation in sciatic nerves of streptozotocinized rats, (tid)
Rattus norvegicus [11] = organism: Rattus norvegicus; assay: Ability to cause 50% reduction in sorbitol levels of sciatic nerve of streptozotocinized rats was determined; value ranges from 10-25; assay type: functional
[12] = biological target: T1, Aldo-keto reductase family 1 member B1; assay: In vitro inhibitory activity towards partially purified calf lens aldose reductase; value ranges from 10E-4- 10E-5
Rattus norvegicus [13] = organism: Rattus norvegicus; assay: Ability to cause 50% reduction in sorbitol levels of sciatic nerve of streptozotocinized rats was determined; value ranges from 25-100; assay type: functional
Rattus norvegicus [14] = organism: Rattus norvegicus; assay: 50% reduction in sorbitol accumulation in isolated sciatic nerves incubated in the presence of high glucose concentration; assay type: functional; details: Sciatic nerve
Rattus norvegicus [15] = organism: Rattus norvegicus; assay: Ability to cause 50% reduction in sorbitol levels of sciatic nerve of streptozotocinized rats was determined; value ranges from 250-500; assay type: functional
Rattus norvegicus [16] = organism: Rattus norvegicus; assay: Ability to cause 50% reduction in sorbitol levels of sciatic nerve of streptozotocinized rats was determined; value ranges from 5-10; assay type: functional
[17] = biological target: T1, Aldo-keto reductase family 1 member B1; assay: In vitro inhibitory activity towards partially purified calf lens aldose reductase; value ranges from 10E-4 - 10E-6
[18] = biological target: T1, Aldo-keto reductase family 1 member B1; assay: Inhibition of partially purified calf lens aldose reductase; value ranges from 10E-4 to 10e-5 M
Rattus norvegicus [19] = organism: Rattus norvegicus; assay: Ability to cause 50% reduction in sorbitol levels of sciatic nerve of streptozotocinized rats was determined; value ranges from 1.5-5; assay type: functional
[20] = biological target: Aldo-keto reductase family 1 member B1 (Rattus norvegicus, UniProt P07943); assay: In vitro inhibitory activity towards partially purified rat lens aldose reductase
Rattus norvegicus [21] = organism: Rattus norvegicus; assay: Ability to cause 50% reduction in sorbitol levels of sciatic nerve of streptozotocinized rats was determined; value ranges from 1.5-10; assay type: functional

## CN1C(=O)N(C)[C@@]2(CCOc3ccc(F)cc32)C1=O
[1]
  IC50: > 100 µM
Rattus norvegicus [2]
  ED50: < 10 mg/kg

## O=C1NC(=O)C2(CCOc3ccc(Cl)cc32)N1 (configuration not stated)
[3]
  IC50: 0.1 µM
Rattus norvegicus [4]
  ED50: 0.25 mg/kg

## O=C1NC(=O)C2(CCn3c(=O)ccc4cccc2c43)N1 (configuration not stated)
[5]
  IC50: 1 µM
Rattus norvegicus [6]
  ED50: 2.5 mg/kg

## O=C(O)C1CCOc2ccc(Cl)cc21 (configuration not stated)
[7]
  pKa: 4.9
[8]
  IC50: 10 µM
Rattus norvegicus [2]
  ED50: > 25 mg/kg
Rattus norvegicus [9]
  IC50: 10000 µM
Rattus norvegicus [10]
  ED50: >0.0001 M/kg

## COc1ccc2c(c1)C1(CCC2)NC(=O)NC1=O (configuration not stated)
[3]
  IC50: 100 µM
Rattus norvegicus [11]
  ED50: 10 mg/kg

## COc1ccc(F)c2c1CCCC21NC(=O)NC1=O (configuration not stated)
[3]
  IC50: > 100 µM
Rattus norvegicus [4]
  ED50: > 25 mg/kg

## COc1ccc2c(c1)CCCC21NC(=O)NC1=O (configuration not stated)
[12]
  IC50: 100 µM
Rattus norvegicus [2]
  ED50: > 25 mg/kg

## CN1C(=O)NC(=O)[C@]12CCOc1ccc(F)cc12
[1]
  IC50: 100 µM
Rattus norvegicus [2]
  ED50: < 10 mg/kg

## O=c1cnn(Cc2ccccc2)c(=O)[nH]1
[3]
  IC50: 10 µM
Rattus norvegicus [13]
  ED50: 25 mg/kg

## O=C(O)CN1C(=O)c2cccc3cccc(c23)C1=O [ALRESTATIN]
[7]
  pKa: 4.8
[8]
  IC50: 10 µM
Rattus norvegicus [14]
  IC50: 1000 µM
Rattus norvegicus [15]
  ED50: 250 mg/kg
Rattus norvegicus [10]
  ED50: 0.001 M/kg

## O=C1NC(=O)C(N2C(=O)c3cccc4cccc(c34)C2=O)N1 (configuration not stated)
[7]
  pKa: 9.5
[1]
  IC50: 8 µM
Rattus norvegicus [14]
  IC50: ~10 µM

## O=C1NC(=O)C2(CCSc3ccccc32)N1 (configuration not stated)
[3]
  IC50: 10 µM
Rattus norvegicus [16]
  ED50: 5 mg/kg

## O=C(O)C1CCOc2ccc(F)cc21 (configuration not stated)
[17]
  IC50: 100 µM
Rattus norvegicus [2]
  ED50: > 25 mg/kg

## O=C1NC(=O)C2(CCc3ccccc32)N1 (configuration not stated)
[18]
  IC50: 100 µM
Rattus norvegicus [2]
  ED50: 5 mg/kg
Rattus norvegicus [11]
  ED50: 5 mg/kg

## O=C1NC(=O)C2(CCOc3c2cc(Cl)c2ccccc32)N1 (configuration not stated)
[3]
  IC50: < 0.1 µM
Rattus norvegicus [19]
  ED50: 1.5 mg/kg

## O=C1NC(=O)C2(CCCc3ccccc32)N1 (configuration not stated)
[18]
  IC50: 100 µM
Rattus norvegicus [11]
  ED50: 10 mg/kg

## CN1C(=O)N[C@]2(CCOc3ccc(F)cc32)C1=O
[1]
  IC50: > 100 µM
Rattus norvegicus [2]
  ED50: < 10 mg/kg

## C[C@@H]1O[C@@H](Oc2c(-c3ccc(O)c(O)c3)oc3cc(O)cc(O)c3c2=O)[C@H](O)[C@H](O)[C@H]1O [QUERCITRIN]
[20]
  IC50: ~0.1 µM
[8]
  IC50: 10 µM
Rattus norvegicus [2]
  ED50: > 40 mg/kg

## O=C1NC(=O)C2(CCOc3c2ccc2ncccc32)N1 (configuration not stated)
[5]
  IC50: 1 µM
Rattus norvegicus [21]
  ED50: 1.5 mg/kg
